# Experimental data taken from ChEMBL document CHEMBL4387773, “Identification of potent, selective and orally bioavailable phenyl ((R)-3-phenylpyrrolidin-3-yl)sulfone analogues as RORγt inverse agonists” (Bioorg Med Chem Lett, 2019).
# System: not listed separately
# Assay: Stability in human liver microsomes assessed as parent compound remaining after 10 mins
# Type: ADME, Microsome
# Conditions: liver microsomes, read-out: Stability
row,remaining at 10 min,Structure (SMILES)
1,100%,O=C(O)[C@@H]1C[C@@H]2[C@H](C1)[C@H]2C(=O)N1CC[C@](c2ccc(C(F)(C(F)(F)F)C(F)(F)F)cc2)(S(=O)(=O)c2ccc(F)cc2)C1
2,90%,O=C(O)C12CCC(C(=O)N3CC[C@](c4ccc(C(F)(C(F)(F)F)C(F)(F)F)cc4)(S(=O)(=O)c4ccc(F)cc4)C3)(CC1)OC2
3,100%,O=C([C@H]1CC[C@](F)(C(=O)O)CC1)N1CC[C@](c2ccc(C(F)(C(F)(F)F)C(F)(F)F)cc2)(S(=O)(=O)c2ccc(F)cc2)C1

# Target: T1, Nuclear receptor subfamily 1 group I member 2 (Homo sapiens, UniProt O75469)
# T1 sequence (O75469 whole entry): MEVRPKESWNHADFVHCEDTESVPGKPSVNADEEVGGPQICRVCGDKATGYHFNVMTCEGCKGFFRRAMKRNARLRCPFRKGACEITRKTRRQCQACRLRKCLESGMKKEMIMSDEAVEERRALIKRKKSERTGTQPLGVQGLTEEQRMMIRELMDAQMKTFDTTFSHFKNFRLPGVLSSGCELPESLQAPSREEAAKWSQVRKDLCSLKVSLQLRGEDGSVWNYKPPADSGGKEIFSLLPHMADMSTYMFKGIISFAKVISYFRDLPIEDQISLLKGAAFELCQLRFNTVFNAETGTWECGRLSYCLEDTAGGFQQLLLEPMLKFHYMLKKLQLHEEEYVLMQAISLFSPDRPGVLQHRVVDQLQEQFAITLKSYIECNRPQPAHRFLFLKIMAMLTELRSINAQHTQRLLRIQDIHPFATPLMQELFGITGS
# Assay: Transactivation of PXR (unknown origin) expressed in human HepG2 cells
# Type: cell-based
# Conditions: not given
row,EC50,Structure (SMILES)
1,> 50 µM,CC1(C(=O)N2CC[C@](c3ccc(C(F)(C(F)(F)F)C(F)(F)F)cc3)(S(=O)(=O)c3ccc(F)cc3)C2)CCS(=O)(=O)CC1
2,> 50 µM,O=C(N1CC[C@](c2ccc(C(F)(C(F)(F)F)C(F)(F)F)cc2)(S(=O)(=O)c2ccc(F)cc2)C1)C12CCC(C(=O)O)(CC1)OC2
3,> 33 µM,O=C(O)[C@@H]1C[C@@H]2[C@H](C1)[C@H]2C(=O)N1CC[C@](c2ccc(C(F)(C(F)(F)F)C(F)(F)F)cc2)(S(=O)(=O)c2ccc(F)cc2)C1
4,> 50 µM,O=C(O)C12CCC(C(=O)N3CC[C@](c4ccc(C(F)(C(F)(F)F)C(F)(F)F)cc4)(S(=O)(=O)c4ccc(F)cc4)C3)(CC1)OC2
5,> 17 µM,O=C([C@H]1CC[C@](F)(C(=O)O)CC1)N1CC[C@](c2ccc(C(F)(C(F)(F)F)C(F)(F)F)cc2)(S(=O)(=O)c2ccc(F)cc2)C1

# Target: T2, PXR (Homo sapiens, UniProt O75469)
# T2 sequence (O75469 whole entry): T1 sequence (O75469 whole entry)
# Assay: Transactivation of PXR (unknown origin) expressed in human HepG2 cells assessed as maximum receptor activation response relative to control
# Type: cell-based
# Conditions: human HepG2 cells that express PXR, read-out: %max
row,Emax,Structure (SMILES)
1,10%,CC1(C(=O)N2CC[C@](c3ccc(C(F)(C(F)(F)F)C(F)(F)F)cc3)(S(=O)(=O)c3ccc(F)cc3)C2)CCS(=O)(=O)CC1
2,5%,O=C(N1CC[C@](c2ccc(C(F)(C(F)(F)F)C(F)(F)F)cc2)(S(=O)(=O)c2ccc(F)cc2)C1)C12CCC(C(=O)O)(CC1)OC2
3,43%,O=C(O)[C@@H]1C[C@@H]2[C@H](C1)[C@H]2C(=O)N1CC[C@](c2ccc(C(F)(C(F)(F)F)C(F)(F)F)cc2)(S(=O)(=O)c2ccc(F)cc2)C1
4,5%,O=C(O)C12CCC(C(=O)N3CC[C@](c4ccc(C(F)(C(F)(F)F)C(F)(F)F)cc4)(S(=O)(=O)c4ccc(F)cc4)C3)(CC1)OC2
5,62%,O=C([C@H]1CC[C@](F)(C(=O)O)CC1)N1CC[C@](c2ccc(C(F)(C(F)(F)F)C(F)(F)F)cc2)(S(=O)(=O)c2ccc(F)cc2)C1

# System: not listed separately
# Assay: Stability in mouse liver microsomes assessed as parent compound remaining after 10 mins
# Type: ADME, Microsome
# Conditions: liver microsomes, read-out: Stability
row,remaining at 10 min,Structure (SMILES)
1,100%,O=C(O)[C@@H]1C[C@@H]2[C@H](C1)[C@H]2C(=O)N1CC[C@](c2ccc(C(F)(C(F)(F)F)C(F)(F)F)cc2)(S(=O)(=O)c2ccc(F)cc2)C1
2,94%,O=C(O)C12CCC(C(=O)N3CC[C@](c4ccc(C(F)(C(F)(F)F)C(F)(F)F)cc4)(S(=O)(=O)c4ccc(F)cc4)C3)(CC1)OC2
3,70%,O=C([C@H]1CC[C@](F)(C(=O)O)CC1)N1CC[C@](c2ccc(C(F)(C(F)(F)F)C(F)(F)F)cc2)(S(=O)(=O)c2ccc(F)cc2)C1

# Target: T3, Nuclear receptor ROR-alpha (Homo sapiens, UniProt P35398)
# T3 sequence (P35398 whole entry): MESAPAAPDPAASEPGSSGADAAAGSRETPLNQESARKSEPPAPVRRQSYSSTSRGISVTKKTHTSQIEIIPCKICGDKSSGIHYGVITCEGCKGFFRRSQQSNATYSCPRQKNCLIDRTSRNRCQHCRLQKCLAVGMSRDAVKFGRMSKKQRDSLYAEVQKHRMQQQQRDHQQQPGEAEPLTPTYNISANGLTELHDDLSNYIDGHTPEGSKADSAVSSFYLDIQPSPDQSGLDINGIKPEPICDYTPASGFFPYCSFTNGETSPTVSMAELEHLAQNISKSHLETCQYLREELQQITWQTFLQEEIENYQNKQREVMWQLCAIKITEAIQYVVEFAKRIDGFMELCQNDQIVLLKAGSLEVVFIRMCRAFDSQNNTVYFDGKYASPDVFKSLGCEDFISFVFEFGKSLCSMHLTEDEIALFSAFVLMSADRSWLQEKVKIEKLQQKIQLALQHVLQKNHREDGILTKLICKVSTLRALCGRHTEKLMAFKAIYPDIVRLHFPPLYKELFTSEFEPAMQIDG
# Assay: Inverse agonist activity at human Gal4-fused RORalpha LBD (272 to 556 residues) expressed in human Jurkat cells measured after 18 hrs by steady-glo luciferase reporter gene assay
# Type: cell-based
# Conditions: not given
row,EC50,Structure (SMILES)
1,> 40 µM,CC1(C(=O)N2CC[C@](c3ccc(C(F)(C(F)(F)F)C(F)(F)F)cc3)(S(=O)(=O)c3ccc(F)cc3)C2)CCS(=O)(=O)CC1
2,> 40 µM,O=C(N1CC[C@](c2ccc(C(F)(C(F)(F)F)C(F)(F)F)cc2)(S(=O)(=O)c2ccc(F)cc2)C1)C12CCC(C(=O)O)(CC1)OC2
3,> 40 µM,O=C(O)[C@@H]1C[C@@H]2[C@H](C1)[C@H]2C(=O)N1CC[C@](c2ccc(C(F)(C(F)(F)F)C(F)(F)F)cc2)(S(=O)(=O)c2ccc(F)cc2)C1
4,> 40 µM,O=C(O)C12CCC(C(=O)N3CC[C@](c4ccc(C(F)(C(F)(F)F)C(F)(F)F)cc4)(S(=O)(=O)c4ccc(F)cc4)C3)(CC1)OC2
5,> 40 µM,O=C([C@H]1CC[C@](F)(C(=O)O)CC1)N1CC[C@](c2ccc(C(F)(C(F)(F)F)C(F)(F)F)cc2)(S(=O)(=O)c2ccc(F)cc2)C1

# Target: T4, Nuclear receptor ROR-beta (Homo sapiens, UniProt Q92753)
# T4 sequence (Q92753 whole entry): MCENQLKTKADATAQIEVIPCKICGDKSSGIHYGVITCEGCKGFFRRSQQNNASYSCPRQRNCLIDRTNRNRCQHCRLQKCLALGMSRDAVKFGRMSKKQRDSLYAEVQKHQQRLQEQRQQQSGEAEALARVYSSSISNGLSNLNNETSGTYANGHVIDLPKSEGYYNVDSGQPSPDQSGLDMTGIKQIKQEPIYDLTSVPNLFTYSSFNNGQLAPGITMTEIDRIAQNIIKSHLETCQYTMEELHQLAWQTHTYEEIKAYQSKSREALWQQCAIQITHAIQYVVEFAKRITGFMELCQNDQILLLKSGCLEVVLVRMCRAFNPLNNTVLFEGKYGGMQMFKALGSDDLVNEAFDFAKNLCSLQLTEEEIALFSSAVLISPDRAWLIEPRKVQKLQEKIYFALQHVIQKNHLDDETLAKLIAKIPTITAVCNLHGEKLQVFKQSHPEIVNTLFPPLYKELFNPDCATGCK
# Assay: Inverse agonist activity at human Gal4-fused RORbeta LBD (200 to 559 residues) expressed in human Jurkat cells measured after 18 hrs by steady-glo luciferase reporter gene assay
# Type: cell-based
# Conditions: not given
row,EC50,Structure (SMILES)
1,> 40 µM,CC1(C(=O)N2CC[C@](c3ccc(C(F)(C(F)(F)F)C(F)(F)F)cc3)(S(=O)(=O)c3ccc(F)cc3)C2)CCS(=O)(=O)CC1
2,> 40 µM,O=C(N1CC[C@](c2ccc(C(F)(C(F)(F)F)C(F)(F)F)cc2)(S(=O)(=O)c2ccc(F)cc2)C1)C12CCC(C(=O)O)(CC1)OC2
3,> 40 µM,O=C(O)[C@@H]1C[C@@H]2[C@H](C1)[C@H]2C(=O)N1CC[C@](c2ccc(C(F)(C(F)(F)F)C(F)(F)F)cc2)(S(=O)(=O)c2ccc(F)cc2)C1
4,> 40 µM,O=C(O)C12CCC(C(=O)N3CC[C@](c4ccc(C(F)(C(F)(F)F)C(F)(F)F)cc4)(S(=O)(=O)c4ccc(F)cc4)C3)(CC1)OC2
5,> 40 µM,O=C([C@H]1CC[C@](F)(C(=O)O)CC1)N1CC[C@](c2ccc(C(F)(C(F)(F)F)C(F)(F)F)cc2)(S(=O)(=O)c2ccc(F)cc2)C1

# Target: T5, Oxysterols receptor LXR-alpha (Homo sapiens, UniProt Q13133)
# T5 sequence (Q13133 whole entry): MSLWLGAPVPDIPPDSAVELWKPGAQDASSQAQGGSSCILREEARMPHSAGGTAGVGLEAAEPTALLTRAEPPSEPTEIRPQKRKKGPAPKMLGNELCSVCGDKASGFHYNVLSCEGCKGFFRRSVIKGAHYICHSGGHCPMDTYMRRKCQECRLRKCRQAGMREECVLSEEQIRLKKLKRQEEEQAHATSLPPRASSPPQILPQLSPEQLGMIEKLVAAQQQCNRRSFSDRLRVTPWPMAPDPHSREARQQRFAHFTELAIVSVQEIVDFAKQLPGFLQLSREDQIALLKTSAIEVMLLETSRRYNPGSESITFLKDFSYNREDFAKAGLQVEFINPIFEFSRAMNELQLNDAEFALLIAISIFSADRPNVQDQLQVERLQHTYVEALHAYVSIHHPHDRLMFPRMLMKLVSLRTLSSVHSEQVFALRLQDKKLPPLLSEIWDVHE
# Assay: Transactivation of human GAL4-fused LXRalpha expressed in African green monkey CV1 cells
# Type: cell-based
# Conditions: not given
row,EC50,Structure (SMILES)
1,> 7.5 µM,CC1(C(=O)N2CC[C@](c3ccc(C(F)(C(F)(F)F)C(F)(F)F)cc3)(S(=O)(=O)c3ccc(F)cc3)C2)CCS(=O)(=O)CC1
2,> 7.5 µM,O=C(N1CC[C@](c2ccc(C(F)(C(F)(F)F)C(F)(F)F)cc2)(S(=O)(=O)c2ccc(F)cc2)C1)C12CCC(C(=O)O)(CC1)OC2
3,> 7.5 µM,O=C(O)[C@@H]1C[C@@H]2[C@H](C1)[C@H]2C(=O)N1CC[C@](c2ccc(C(F)(C(F)(F)F)C(F)(F)F)cc2)(S(=O)(=O)c2ccc(F)cc2)C1
4,> 7.5 µM,O=C(O)C12CCC(C(=O)N3CC[C@](c4ccc(C(F)(C(F)(F)F)C(F)(F)F)cc4)(S(=O)(=O)c4ccc(F)cc4)C3)(CC1)OC2
5,> 7.5 µM,O=C([C@H]1CC[C@](F)(C(=O)O)CC1)N1CC[C@](c2ccc(C(F)(C(F)(F)F)C(F)(F)F)cc2)(S(=O)(=O)c2ccc(F)cc2)C1

# Target: T6, Oxysterols receptor LXR-beta (Homo sapiens, UniProt P55055)
# T6 sequence (P55055 whole entry): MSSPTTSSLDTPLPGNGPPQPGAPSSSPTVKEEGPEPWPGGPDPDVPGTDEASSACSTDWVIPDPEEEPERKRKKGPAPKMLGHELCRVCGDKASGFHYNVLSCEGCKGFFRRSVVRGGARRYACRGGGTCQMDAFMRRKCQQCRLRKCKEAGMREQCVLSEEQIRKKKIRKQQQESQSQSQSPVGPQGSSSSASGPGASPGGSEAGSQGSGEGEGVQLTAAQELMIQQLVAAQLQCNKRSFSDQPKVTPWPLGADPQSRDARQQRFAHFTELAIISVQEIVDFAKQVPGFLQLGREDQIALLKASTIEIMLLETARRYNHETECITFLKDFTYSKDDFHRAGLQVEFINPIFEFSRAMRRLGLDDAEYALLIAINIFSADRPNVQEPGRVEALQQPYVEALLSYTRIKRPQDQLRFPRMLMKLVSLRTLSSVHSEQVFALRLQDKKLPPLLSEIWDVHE
# Assay: Transactivation of human GAL4-fused LXRbeta expressed in African green monkey CV1 cells
# Type: cell-based
# Conditions: not given
row,EC50,Structure (SMILES)
1,> 7.5 µM,CC1(C(=O)N2CC[C@](c3ccc(C(F)(C(F)(F)F)C(F)(F)F)cc3)(S(=O)(=O)c3ccc(F)cc3)C2)CCS(=O)(=O)CC1
2,> 7.5 µM,O=C(N1CC[C@](c2ccc(C(F)(C(F)(F)F)C(F)(F)F)cc2)(S(=O)(=O)c2ccc(F)cc2)C1)C12CCC(C(=O)O)(CC1)OC2
3,> 7.5 µM,O=C(O)[C@@H]1C[C@@H]2[C@H](C1)[C@H]2C(=O)N1CC[C@](c2ccc(C(F)(C(F)(F)F)C(F)(F)F)cc2)(S(=O)(=O)c2ccc(F)cc2)C1
4,> 7.5 µM,O=C(O)C12CCC(C(=O)N3CC[C@](c4ccc(C(F)(C(F)(F)F)C(F)(F)F)cc4)(S(=O)(=O)c4ccc(F)cc4)C3)(CC1)OC2
5,> 7.5 µM,O=C([C@H]1CC[C@](F)(C(=O)O)CC1)N1CC[C@](c2ccc(C(F)(C(F)(F)F)C(F)(F)F)cc2)(S(=O)(=O)c2ccc(F)cc2)C1
